Test results reported in PubChem BioAssay AID2060613 (Molecular Pharmacology Branch, DTP, NCI, 2025).

Test system: 233499-124-R-J3-PDC complex spheroid viability
Assay: Anticancer human tumor 233499-124-R-J3-PDC patient-derived colon adenocarcinoma cell line growth inhibition [CLK]
Details: for IC50: curve of first compound; for viability, T/C: stronger effect = lower value
Summary of the method: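 Multi-cell-type spheroids combined patient-derived tumor cells with HUVEC endothelial cells and human mesenchymal stem cells. Paired agents were dosed in half-log steps down from about clinical Cmax, or from 10 microM where Cmax was unknown.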

[1] = second compound 0.0316 µM, first compound 0.0316 µM
[2] = second compound 0.0316 µM, first compound 0.1 µM
[3] = second compound 0.0316 µM, first compound 0.316 µM
[4] = second compound 0.0316 µM, first compound 1 µM
[5] = second compound 0.0316 µM, first compound 3.16 µM
[6] = second compound 0.0316 µM, first compound 10 µM
[7] = second compound 0.1 µM, first compound 0.0316 µM
[8] = second compound 0.1 µM, first compound 0.1 µM
[9] = second compound 0.1 µM, first compound 0.316 µM
[10] = second compound 0.1 µM, first compound 1 µM
[11] = second compound 0.1 µM, first compound 3.16 µM
[12] = second compound 0.1 µM, first compound 10 µM
[13] = second compound 0.316 µM, first compound 0.0316 µM
[14] = second compound 0.316 µM, first compound 0.1 µM
[15] = second compound 0.316 µM, first compound 0.316 µM
[16] = second compound 0.316 µM, first compound 1 µM
[17] = second compound 0.316 µM, first compound 3.16 µM
[18] = second compound 0.316 µM, first compound 10 µM
[19] = second compound 1 µM, first compound 0.0316 µM
[20] = second compound 1 µM, first compound 0.1 µM
[21] = second compound 1 µM, first compound 0.316 µM
[22] = second compound 1 µM, first compound 1 µM
[23] = second compound 1 µM, first compound 3.16 µM
[24] = second compound 1 µM, first compound 10 µM
[25] = second compound 3.16 µM, first compound 0.0316 µM
[26] = second compound 3.16 µM, first compound 0.1 µM
[27] = second compound 3.16 µM, first compound 0.316 µM
[28] = second compound 3.16 µM, first compound 1 µM
[29] = second compound 3.16 µM, first compound 3.16 µM
[30] = second compound 3.16 µM, first compound 10 µM
[31] = second compound 10 µM, first compound 0.0316 µM
[32] = second compound 10 µM, first compound 0.1 µM
[33] = second compound 10 µM, first compound 0.316 µM
[34] = second compound 10 µM, first compound 1 µM
[35] = second compound 10 µM, first compound 3.16 µM
[36] = second compound 10 µM, first compound 10 µM
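Also: spheroids exposed to the drug combinations for seven days.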
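For viability, T/C in this document: percent viability relative to DMSO vehicle control wells taken as 100%.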

CC(=O)O[C@H]1C(=O)[C@@]2(C)[C@H]([C@H](OC(=O)c3ccccc3)[C@]3(O)C[C@H](OC(=O)[C@H](O)[C@@H](NC(=O)c4ccccc4)c4ccccc4)C(C)=C1C3(C)C)[C@]1(OC(C)=O)CO[C@@H]1C[C@@H]2O + CN1CCN(c2cc(C(=O)Nc3cc4cc(-c5cnn(C)c5)ccc4cn3)ccn2)CC1
IC50 (second compound 0.0316 µM): 69.9 nM
IC50 (second compound 0.1 µM): 57.7 nM
IC50 (second compound 0.316 µM): 39.4 nM
IC50 (second compound 1 µM): < 31.6 nM
IC50 (second compound 3.16 µM): < 31.6 nM
IC50 (second compound 10 µM): < 31.6 nM
viability, T/C [1]: 79.9%
viability, T/C [2]: 36.4%
viability, T/C [3]: 15.7%
viability, T/C [4]: 14.2%
viability, T/C [5]: 14.4%
viability, T/C [6]: 21.8%
viability, T/C [7]: 77.1%
viability, T/C [8]: 25.5%
viability, T/C [9]: 11.9%
viability, T/C [10]: 10.2%
viability, T/C [11]: 12%
viability, T/C [12]: 15.1%
viability, T/C [13]: 57.5%
viability, T/C [14]: 18.2%
viability, T/C [15]: 15.6%
viability, T/C [16]: 11.5%
viability, T/C [17]: 13.8%
viability, T/C [18]: 11.9%
viability, T/C [19]: 0.76%
viability, T/C [20]: 1.44%
viability, T/C [21]: 1.17%
viability, T/C [22]: 1.02%
viability, T/C [23]: 0.56%
viability, T/C [24]: 0.53%
viability, T/C [25]: 0.61%
viability, T/C [26]: 0.63%
viability, T/C [27]: 0.56%
viability, T/C [28]: 0.52%
viability, T/C [29]: 0.59%
viability, T/C [30]: 0.74%
viability, T/C [31]: 0.46%
viability, T/C [32]: 0.45%
viability, T/C [33]: 0.39%
viability, T/C [34]: 0.43%
viability, T/C [35]: 0.43%
viability, T/C [36]: 0.39%

CCc1c2c(nc3ccc(O)cc13)-c1cc3c(c(=O)n1C2)COC(=O)[C@]3(O)CC + CN1CCN(c2cc(C(=O)Nc3cc4cc(-c5cnn(C)c5)ccc4cn3)ccn2)CC1
IC50 (second compound 0.0316 µM): 601 nM
IC50 (second compound 0.1 µM): 463 nM
IC50 (second compound 0.316 µM): 81.4 nM
IC50 (second compound 1 µM): < 3.16 nM
IC50 (second compound 3.16 µM): < 3.16 nM
IC50 (second compound 10 µM): < 3.16 nM
viability, T/C (second compound 0.0316 µM, first compound 0.00316 µM): 95.4%
viability, T/C (second compound 0.0316 µM, first compound 0.01 µM): 65.8%
viability, T/C [1]: 81.8%
viability, T/C [2]: 87.3%
viability, T/C [3]: 60.5%
viability, T/C [4]: 41.7%
viability, T/C (second compound 0.1 µM, first compound 0.00316 µM): 85.6%
viability, T/C (second compound 0.1 µM, first compound 0.01 µM): 82.5%
viability, T/C [7]: 88%
viability, T/C [8]: 88.1%
viability, T/C [9]: 60.7%
viability, T/C [10]: 28.4%
viability, T/C (second compound 0.316 µM, first compound 0.00316 µM): 88%
viability, T/C (second compound 0.316 µM, first compound 0.01 µM): 80.9%
viability, T/C [13]: 58.5%
viability, T/C [14]: 58.5%
viability, T/C [15]: 14.1%
viability, T/C [16]: 9.37%
viability, T/C (second compound 1 µM, first compound 0.00316 µM): 1.6%
viability, T/C (second compound 1 µM, first compound 0.01 µM): 0.5%
viability, T/C [19]: 0.39%
viability, T/C [20]: 0.38%
viability, T/C [21]: 0.35%
viability, T/C [22]: 0.47%
viability, T/C (second compound 3.16 µM, first compound 0.00316 µM): 0.46%
viability, T/C (second compound 3.16 µM, first compound 0.01 µM): 0.5%
viability, T/C [25]: 0.59%
viability, T/C [26]: 0.52%
viability, T/C [27]: 0.63%
viability, T/C [28]: 0.55%
viability, T/C (second compound 10 µM, first compound 0.00316 µM): 0.36%
viability, T/C (second compound 10 µM, first compound 0.01 µM): 0.33%
viability, T/C [31]: 0.32%
viability, T/C [32]: 0.37%
viability, T/C [33]: 0.42%
viability, T/C [34]: 0.3%

O=c1[nH]cc(F)c(=O)[nH]1 + CN1CCN(c2cc(C(=O)Nc3cc4cc(-c5cnn(C)c5)ccc4cn3)ccn2)CC1
IC50 (second compound 0.0316 µM): 850 nM
IC50 (second compound 0.1 µM): 952 nM
IC50 (second compound 0.316 µM): 844 nM
IC50 (second compound 1 µM): < 31.6 nM
IC50 (second compound 3.16 µM): < 31.6 nM
IC50 (second compound 10 µM): < 31.6 nM
viability, T/C [1]: 93%
viability, T/C [2]: 104%
viability, T/C [3]: 90.8%
viability, T/C [4]: 43.5%
viability, T/C [5]: 28.6%
viability, T/C [6]: 31.4%
viability, T/C [7]: 99.8%
viability, T/C [8]: 100%
viability, T/C [9]: 96.8%
viability, T/C [10]: 48%
viability, T/C [11]: 28.8%
viability, T/C [12]: 30.4%
viability, T/C [13]: 96.3%
viability, T/C [14]: 98.5%
viability, T/C [15]: 96.5%
viability, T/C [16]: 42%
viability, T/C [17]: 24.6%
viability, T/C [18]: 19.7%
viability, T/C [19]: 1.35%
viability, T/C [20]: 1.2%
viability, T/C [21]: 0.92%
viability, T/C [22]: 2.1%
viability, T/C [23]: 0.59%
viability, T/C [24]: 0.84%
viability, T/C [25]: 0.5%
viability, T/C [26]: 0.58%
viability, T/C [27]: 1.18%
viability, T/C [28]: 0.66%
viability, T/C [29]: 0.53%
viability, T/C [30]: 0.54%
viability, T/C [31]: 0.37%
viability, T/C [32]: 0.5%
viability, T/C [33]: 1.31%
viability, T/C [34]: 0.42%
viability, T/C [35]: 0.41%
viability, T/C [36]: 0.45%
